Assay results taken from the kinase profiling compilation of Christmann-Franck et al. (2016).

Legend:
Test in all cases: radiometric filter-binding kinase assay, Kinase HotSpot
Conditions in all cases: compound 0.5 µM; ATP 10 µM
ADRBK2 (human) = ADRBK2 (human) (UniProt P35626)
CSNK1A1 (human) = CSNK1A1 (human) (UniProt P48729)
MAP4K4 (human) = MAP4K4 (human) (UniProt O95819)
RPS6KA5 KD2 (human) = RPS6KA5 KD2 (human) (UniProt O75582)
PRKCG (human) = PRKCG (human) (UniProt P05129)
MAP3K14 (human) = MAP3K14 (human) (UniProt Q99558)
MAP3K14 (human), sequence (Q99558 whole entry, looked up): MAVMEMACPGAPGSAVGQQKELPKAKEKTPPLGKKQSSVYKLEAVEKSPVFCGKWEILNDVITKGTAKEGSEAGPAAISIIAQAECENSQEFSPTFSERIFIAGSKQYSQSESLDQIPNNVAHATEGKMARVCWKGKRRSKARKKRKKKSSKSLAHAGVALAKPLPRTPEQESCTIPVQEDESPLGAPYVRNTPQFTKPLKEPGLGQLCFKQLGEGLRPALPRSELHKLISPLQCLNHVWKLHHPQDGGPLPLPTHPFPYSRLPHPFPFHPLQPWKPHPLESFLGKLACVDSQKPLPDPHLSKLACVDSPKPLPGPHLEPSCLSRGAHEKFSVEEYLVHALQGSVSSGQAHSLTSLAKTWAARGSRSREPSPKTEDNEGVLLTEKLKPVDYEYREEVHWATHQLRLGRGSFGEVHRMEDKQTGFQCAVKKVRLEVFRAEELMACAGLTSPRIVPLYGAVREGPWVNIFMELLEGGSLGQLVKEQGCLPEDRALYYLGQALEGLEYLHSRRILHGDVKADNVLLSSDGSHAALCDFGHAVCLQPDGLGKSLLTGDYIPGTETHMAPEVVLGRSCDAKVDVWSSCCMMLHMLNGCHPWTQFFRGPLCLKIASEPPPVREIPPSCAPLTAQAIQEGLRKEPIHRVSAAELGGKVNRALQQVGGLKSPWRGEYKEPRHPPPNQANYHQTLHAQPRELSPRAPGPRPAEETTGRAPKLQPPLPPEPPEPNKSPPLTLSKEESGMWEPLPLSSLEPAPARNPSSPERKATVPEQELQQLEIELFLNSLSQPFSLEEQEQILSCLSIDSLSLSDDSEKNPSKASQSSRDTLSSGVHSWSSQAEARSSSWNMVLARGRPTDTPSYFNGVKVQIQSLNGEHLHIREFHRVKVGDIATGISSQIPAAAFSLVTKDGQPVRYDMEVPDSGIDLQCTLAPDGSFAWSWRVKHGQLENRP

AKT1 (human) = AKT1 (human) (UniProt P31749)
MAPKAPK2 (human) = MAPKAPK2 (human) (UniProt P49137)
DYRK3 (human) = DYRK3 (human) (UniProt O43781)
PKN1 (human) = PKN1 (human) (UniProt Q16512)
PRKD3 (human) = PRKD3 (human) (UniProt O94806)
STK11 (human) = STK11 (human) (UniProt Q15831)
CSNK2A2 (human) = CSNK2A2 (human) (UniProt P19784)
EPHB2 (human) = EPHB2 (human) (UniProt P29323)
IKBKB (human) = IKBKB (human) (UniProt O14920)
TSSK2 (human) = TSSK2 (human) (UniProt Q96PF2)
IKBKE (human) = IKBKE (human) (UniProt Q14164)
CDK4 CCND1 (human) = CDK4 CCND1 (human) (UniProt P24385+P11802)
MUSK (human) = MUSK (human) (UniProt O15146)
CSNK1E (human) = CSNK1E (human) (UniProt P49674)
KDR (human) = KDR (human) (UniProt P35968)
RAF1 (human) = RAF1 (human) (UniProt P04049)
PLK2 (human) = PLK2 (human) (UniProt Q9NYY3)
NEK11 (human) = NEK11 (human) (UniProt Q8NG66)
EPHA5 (human) = EPHA5 (human) (UniProt P54756)
MAP4K5 (human) = MAP4K5 (human) (UniProt Q9Y4K4)
MAP3K7 TAB1 (human) = MAP3K7 TAB1 (human) (UniProt O43318+Q15750)
PAK3 (human) = PAK3 (human) (UniProt O75914)
MYLK2 (human) = MYLK2 (human) (UniProt Q9H1R3)
MLTK (human) = MLTK (human) (UniProt Q9NYL2)
CLK3 (human) = CLK3 (human) (UniProt P49761)
ERBB4 (human) = ERBB4 (human) (UniProt Q15303)
INSR (human) = INSR (human) (UniProt P06213)
EPHA8 (human) = EPHA8 (human) (UniProt P29322)
EPHA8 (human), sequence (P29322 whole entry, looked up): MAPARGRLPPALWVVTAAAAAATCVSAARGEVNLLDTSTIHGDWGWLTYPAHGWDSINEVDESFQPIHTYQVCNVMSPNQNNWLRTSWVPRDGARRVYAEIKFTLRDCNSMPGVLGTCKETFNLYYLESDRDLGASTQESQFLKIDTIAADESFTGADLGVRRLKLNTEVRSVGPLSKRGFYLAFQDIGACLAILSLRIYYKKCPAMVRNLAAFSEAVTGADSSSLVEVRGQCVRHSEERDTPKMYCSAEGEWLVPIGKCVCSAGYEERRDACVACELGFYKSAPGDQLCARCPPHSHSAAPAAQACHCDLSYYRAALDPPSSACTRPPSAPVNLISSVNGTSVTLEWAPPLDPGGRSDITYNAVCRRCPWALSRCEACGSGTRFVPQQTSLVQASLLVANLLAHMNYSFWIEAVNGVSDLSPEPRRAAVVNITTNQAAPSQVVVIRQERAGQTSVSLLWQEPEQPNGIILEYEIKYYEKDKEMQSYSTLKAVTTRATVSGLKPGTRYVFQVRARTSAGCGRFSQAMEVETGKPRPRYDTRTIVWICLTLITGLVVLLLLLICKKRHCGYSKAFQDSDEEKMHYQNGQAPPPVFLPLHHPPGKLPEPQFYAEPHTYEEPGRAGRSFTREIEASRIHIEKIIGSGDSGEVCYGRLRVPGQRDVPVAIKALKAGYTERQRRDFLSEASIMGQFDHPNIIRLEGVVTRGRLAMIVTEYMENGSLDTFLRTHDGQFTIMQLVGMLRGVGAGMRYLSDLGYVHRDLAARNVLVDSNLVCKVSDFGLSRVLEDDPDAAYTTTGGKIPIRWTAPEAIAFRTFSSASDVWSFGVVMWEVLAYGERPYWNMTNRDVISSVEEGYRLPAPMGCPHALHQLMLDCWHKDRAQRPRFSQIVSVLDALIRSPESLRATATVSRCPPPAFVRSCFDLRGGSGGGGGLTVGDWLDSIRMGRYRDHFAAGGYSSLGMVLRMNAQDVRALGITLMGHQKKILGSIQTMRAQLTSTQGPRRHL

GRK4 (human) = GRK4 (human) (UniProt P32298)
FLT1 (human) = FLT1 (human) (UniProt P17948)
FLT1 (human), sequence (P17948 whole entry, looked up): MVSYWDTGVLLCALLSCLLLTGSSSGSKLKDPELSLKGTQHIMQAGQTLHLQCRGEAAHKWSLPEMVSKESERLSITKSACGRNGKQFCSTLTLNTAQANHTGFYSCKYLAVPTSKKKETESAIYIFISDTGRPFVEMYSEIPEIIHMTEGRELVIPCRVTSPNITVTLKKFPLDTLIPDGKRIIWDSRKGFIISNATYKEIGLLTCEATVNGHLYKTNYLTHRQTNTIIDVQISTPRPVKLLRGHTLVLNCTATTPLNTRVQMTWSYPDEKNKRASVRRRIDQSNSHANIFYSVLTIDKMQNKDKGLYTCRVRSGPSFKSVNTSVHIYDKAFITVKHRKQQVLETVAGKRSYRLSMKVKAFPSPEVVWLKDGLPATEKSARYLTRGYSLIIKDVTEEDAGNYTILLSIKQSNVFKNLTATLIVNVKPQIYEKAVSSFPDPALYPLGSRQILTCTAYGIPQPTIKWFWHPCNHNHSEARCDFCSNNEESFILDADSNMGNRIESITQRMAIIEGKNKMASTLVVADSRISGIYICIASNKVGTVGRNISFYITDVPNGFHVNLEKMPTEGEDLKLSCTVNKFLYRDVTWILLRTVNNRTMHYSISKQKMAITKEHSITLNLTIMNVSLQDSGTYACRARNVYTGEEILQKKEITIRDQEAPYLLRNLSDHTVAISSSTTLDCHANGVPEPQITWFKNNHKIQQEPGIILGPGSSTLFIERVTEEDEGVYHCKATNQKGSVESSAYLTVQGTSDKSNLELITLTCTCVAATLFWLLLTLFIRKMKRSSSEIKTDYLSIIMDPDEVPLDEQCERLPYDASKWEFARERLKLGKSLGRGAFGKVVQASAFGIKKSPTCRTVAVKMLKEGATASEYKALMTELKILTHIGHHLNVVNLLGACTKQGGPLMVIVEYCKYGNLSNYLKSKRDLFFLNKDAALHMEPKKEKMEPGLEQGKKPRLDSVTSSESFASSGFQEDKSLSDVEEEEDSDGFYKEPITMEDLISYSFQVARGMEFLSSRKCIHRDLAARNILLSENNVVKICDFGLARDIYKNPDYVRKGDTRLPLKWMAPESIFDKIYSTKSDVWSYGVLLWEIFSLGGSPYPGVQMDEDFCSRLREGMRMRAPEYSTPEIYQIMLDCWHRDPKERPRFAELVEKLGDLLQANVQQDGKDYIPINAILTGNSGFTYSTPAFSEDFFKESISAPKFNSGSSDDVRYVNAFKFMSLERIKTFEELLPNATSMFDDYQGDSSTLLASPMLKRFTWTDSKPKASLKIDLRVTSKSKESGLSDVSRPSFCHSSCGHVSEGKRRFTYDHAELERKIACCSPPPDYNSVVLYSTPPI

PRKCA (human) = PRKCA (human) (UniProt P17252)
PASK (human) = PASK (human) (UniProt Q96RG2)
CAMKK2 (human) = CAMKK2 (human) (UniProt Q96RR4)
CAMKK2 (human), sequence (Q96RR4 whole entry, looked up): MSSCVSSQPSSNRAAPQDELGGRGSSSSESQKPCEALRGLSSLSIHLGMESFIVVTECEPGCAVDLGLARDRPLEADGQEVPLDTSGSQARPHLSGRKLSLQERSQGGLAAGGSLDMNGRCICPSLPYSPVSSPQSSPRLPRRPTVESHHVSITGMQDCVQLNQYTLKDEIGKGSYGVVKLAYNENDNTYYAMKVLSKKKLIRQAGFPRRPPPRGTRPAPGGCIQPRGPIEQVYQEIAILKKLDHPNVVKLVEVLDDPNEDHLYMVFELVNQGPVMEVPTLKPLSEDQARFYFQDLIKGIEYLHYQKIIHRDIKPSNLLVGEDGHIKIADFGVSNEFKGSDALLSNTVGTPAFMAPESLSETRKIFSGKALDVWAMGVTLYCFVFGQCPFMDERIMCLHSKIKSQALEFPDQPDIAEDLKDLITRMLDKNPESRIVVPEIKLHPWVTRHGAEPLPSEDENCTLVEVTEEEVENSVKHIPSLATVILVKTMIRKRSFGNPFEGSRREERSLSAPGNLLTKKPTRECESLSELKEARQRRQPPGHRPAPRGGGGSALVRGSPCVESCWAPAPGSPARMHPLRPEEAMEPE

RET (human) = RET (human) (UniProt P07949)
PRKACA (human) = PRKACA (human) (UniProt P17612)
PDGFRB (human) = PDGFRB (human) (UniProt P09619)

CSNK1A1 (human), sequence (P48729 whole entry, looked up): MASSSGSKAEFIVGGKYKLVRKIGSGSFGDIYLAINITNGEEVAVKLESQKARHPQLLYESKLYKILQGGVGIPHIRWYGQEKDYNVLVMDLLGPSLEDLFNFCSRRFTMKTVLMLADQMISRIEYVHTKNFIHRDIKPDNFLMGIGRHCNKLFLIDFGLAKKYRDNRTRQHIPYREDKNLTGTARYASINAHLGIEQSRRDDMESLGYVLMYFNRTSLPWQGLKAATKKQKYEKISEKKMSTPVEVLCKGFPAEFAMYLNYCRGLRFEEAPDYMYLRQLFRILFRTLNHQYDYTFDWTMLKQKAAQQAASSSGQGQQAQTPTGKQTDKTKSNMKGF
RPS6KA5 KD2 (human), sequence (O75582 whole entry, looked up): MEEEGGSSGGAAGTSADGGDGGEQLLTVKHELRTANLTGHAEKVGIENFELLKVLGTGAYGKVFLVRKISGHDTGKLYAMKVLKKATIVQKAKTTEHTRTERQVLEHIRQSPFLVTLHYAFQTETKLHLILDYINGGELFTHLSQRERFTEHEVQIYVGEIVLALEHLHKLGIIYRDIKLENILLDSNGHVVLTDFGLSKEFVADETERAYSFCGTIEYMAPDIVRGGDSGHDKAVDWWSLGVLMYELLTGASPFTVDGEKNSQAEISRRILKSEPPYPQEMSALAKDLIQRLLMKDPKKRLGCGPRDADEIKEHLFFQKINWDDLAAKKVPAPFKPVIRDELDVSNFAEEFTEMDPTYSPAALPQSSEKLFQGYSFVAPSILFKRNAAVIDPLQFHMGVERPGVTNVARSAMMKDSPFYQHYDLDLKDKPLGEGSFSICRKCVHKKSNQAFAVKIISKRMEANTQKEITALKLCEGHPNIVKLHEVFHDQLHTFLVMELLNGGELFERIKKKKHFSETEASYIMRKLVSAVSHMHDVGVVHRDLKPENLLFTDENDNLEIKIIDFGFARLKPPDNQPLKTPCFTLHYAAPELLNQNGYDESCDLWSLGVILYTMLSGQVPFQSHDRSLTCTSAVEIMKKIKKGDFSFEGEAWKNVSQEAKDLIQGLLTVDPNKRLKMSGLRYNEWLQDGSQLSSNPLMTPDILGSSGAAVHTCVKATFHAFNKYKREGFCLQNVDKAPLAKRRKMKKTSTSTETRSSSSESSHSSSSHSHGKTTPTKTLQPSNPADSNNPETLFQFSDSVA

CC(C)N(CCC(=O)c1ccc2ccccc2c1)Cc1ccccc1
residual activity (ADRBK2 (human)): 88.9% | residual activity (CSNK1A1 (human)): 88.4% | residual activity (MAP4K4 (human)): 96.7% | residual activity (RPS6KA5 KD2 (human)): 102% | residual activity (PRKCG (human)): 92.7% | residual activity (MAP3K14 (human)): 117% | residual activity (AKT1 (human)): 100% | residual activity (MAPKAPK2 (human)): 99% | residual activity (DYRK3 (human)): 107% | residual activity (PKN1 (human)): 107% | residual activity (PRKD3 (human)): 98.1% | residual activity (STK11 (human)): 94.2% | residual activity (CSNK2A2 (human)): 95.4% | residual activity (EPHB2 (human)): 102% | residual activity (IKBKB (human)): 101% | residual activity (TSSK2 (human)): 100% | residual activity (IKBKE (human)): 93% | residual activity (CDK4 CCND1 (human)): 103% | residual activity (MUSK (human)): 112% | residual activity (CSNK1E (human)): 96.1% | residual activity (KDR (human)): 98.9% | residual activity (RAF1 (human)): 87.3% | residual activity (PLK2 (human)): 97% | residual activity (NEK11 (human)): 105% | residual activity (EPHA5 (human)): 118% | residual activity (MAP4K5 (human)): 90.2% | residual activity (MAP3K7 TAB1 (human)): 95.4% | residual activity (PAK3 (human)): 98.6% | residual activity (MYLK2 (human)): 100% | residual activity (MLTK (human)): 90.5% | residual activity (CLK3 (human)): 99.6% | residual activity (ERBB4 (human)): 91.7% | residual activity (INSR (human)): 107% | residual activity (EPHA8 (human)): 95.9% | residual activity (GRK4 (human)): 94.9% | residual activity (FLT1 (human)): 86% | residual activity (PRKCA (human)): 107% | residual activity (PASK (human)): 97.3% | residual activity (CAMKK2 (human)): 85.2% | residual activity (RET (human)): 101%

c1ccc(-c2n[nH]c3c2oc2ccccc23)cc1
residual activity (ADRBK2 (human)): 119% | residual activity (CSNK1A1 (human)): 73.8% | residual activity (MAP4K4 (human)): 36.1% | residual activity (RPS6KA5 KD2 (human)): 94.9% | residual activity (PRKCG (human)): 99.9% | residual activity (MAP3K14 (human)): 71.8% | residual activity (AKT1 (human)): 86.9% | residual activity (MAPKAPK2 (human)): 99.1% | residual activity (DYRK3 (human)): 93% | residual activity (PKN1 (human)): 94.1% | residual activity (PRKD3 (human)): 99.6% | residual activity (STK11 (human)): 107% | residual activity (CSNK2A2 (human)): 85.6% | residual activity (EPHB2 (human)): 83.1% | residual activity (IKBKB (human)): 92.2% | residual activity (TSSK2 (human)): 97.6% | residual activity (IKBKE (human)): 101% | residual activity (CDK4 CCND1 (human)): 87.9% | residual activity (MUSK (human)): 72.6% | residual activity (CSNK1E (human)): 91.8% | residual activity (KDR (human)): 107% | residual activity (RAF1 (human)): 94.9% | residual activity (PLK2 (human)): 102% | residual activity (NEK11 (human)): 103% | residual activity (EPHA5 (human)): 92.1% | residual activity (MAP4K5 (human)): 36.6% | residual activity (MAP3K7 TAB1 (human)): 104% | residual activity (PAK3 (human)): 89.2% | residual activity (MYLK2 (human)): 66.6% | residual activity (MLTK (human)): 96.2% | residual activity (PRKACA (human)): 97.5% | residual activity (CLK3 (human)): 91% | residual activity (ERBB4 (human)): 89.7% | residual activity (INSR (human)): 94.4% | residual activity (EPHA8 (human)): 102% | residual activity (GRK4 (human)): 110% | residual activity (FLT1 (human)): 94.5% | residual activity (PRKCA (human)): 92.9% | residual activity (PASK (human)): 97.4% | residual activity (CAMKK2 (human)): 87.5% | residual activity (RET (human)): 78.2%

O=S(=O)(c1cccc2cnccc12)N1CCCNCC1
residual activity (PDGFRB (human)): 102% | residual activity (ADRBK2 (human)): 100% | residual activity (MAP4K4 (human)): 44.1% | residual activity (RPS6KA5 KD2 (human)): 62.1% | residual activity (PRKCG (human)): 110% | residual activity (MAP3K14 (human)): 97.7% | residual activity (AKT1 (human)): 99.3% | residual activity (MAPKAPK2 (human)): 101% | residual activity (DYRK3 (human)): 89.1% | residual activity (PKN1 (human)): 40.5% | residual activity (PRKD3 (human)): 65.8% | residual activity (STK11 (human)): 97.6% | residual activity (CSNK2A2 (human)): 91.9% | residual activity (EPHB2 (human)): 83.2% | residual activity (TSSK2 (human)): 80.2% | residual activity (CDK4 CCND1 (human)): 92.2% | residual activity (MUSK (human)): 97.6% | residual activity (CSNK1E (human)): 99.3% | residual activity (KDR (human)): 86.9% | residual activity (RAF1 (human)): 98.3% | residual activity (PLK2 (human)): 100% | residual activity (NEK11 (human)): 114% | residual activity (EPHA5 (human)): 90.5% | residual activity (MAP4K5 (human)): 36.3% | residual activity (MAP3K7 TAB1 (human)): 106% | residual activity (PAK3 (human)): 103% | residual activity (MYLK2 (human)): 99.6% | residual activity (MLTK (human)): 101% | residual activity (CLK3 (human)): 83.7% | residual activity (ERBB4 (human)): 101% | residual activity (INSR (human)): 95% | residual activity (EPHA8 (human)): 106% | residual activity (GRK4 (human)): 104% | residual activity (FLT1 (human)): 90% | residual activity (PRKCA (human)): 94.8% | residual activity (PASK (human)): 97.1% | residual activity (CAMKK2 (human)): 95.9% | residual activity (RET (human)): 97.8%

COc1ccc(COc2ccc(Cc3cnc(N)nc3N)cc2OC)cc1
residual activity (PDGFRB (human)): 98.2% | residual activity (ADRBK2 (human)): 103% | residual activity (CSNK1A1 (human)): 97.9% | residual activity (MAP4K4 (human)): 99% | residual activity (RPS6KA5 KD2 (human)): 103% | residual activity (PRKCG (human)): 102% | residual activity (MAP3K14 (human)): 81.8% | residual activity (AKT1 (human)): 97.4% | residual activity (MAPKAPK2 (human)): 103% | residual activity (DYRK3 (human)): 108% | residual activity (PKN1 (human)): 101% | residual activity (PRKD3 (human)): 97.1% | residual activity (STK11 (human)): 103% | residual activity (CSNK2A2 (human)): 97.4% | residual activity (EPHB2 (human)): 87.4% | residual activity (IKBKB (human)): 99.9% | residual activity (TSSK2 (human)): 109% | residual activity (IKBKE (human)): 96.7% | residual activity (CDK4 CCND1 (human)): 97.4% | residual activity (MUSK (human)): 102% | residual activity (CSNK1E (human)): 97.1% | residual activity (KDR (human)): 109% | residual activity (PLK2 (human)): 116% | residual activity (NEK11 (human)): 103% | residual activity (EPHA5 (human)): 111% | residual activity (MAP4K5 (human)): 97.4% | residual activity (MAP3K7 TAB1 (human)): 97.9% | residual activity (PAK3 (human)): 102% | residual activity (MYLK2 (human)): 104% | residual activity (MLTK (human)): 97.4% | residual activity (PRKACA (human)): 104% | residual activity (CLK3 (human)): 98.3% | residual activity (ERBB4 (human)): 110% | residual activity (INSR (human)): 97% | residual activity (GRK4 (human)): 106% | residual activity (FLT1 (human)): 99.7% | residual activity (PRKCA (human)): 95.9% | residual activity (PASK (human)): 103% | residual activity (CAMKK2 (human)): 103% | residual activity (RET (human)): 108%

CNc1cc2c(Nc3cccc(Br)c3)ncnc2cn1
residual activity (PDGFRB (human)): 86.4% | residual activity (ADRBK2 (human)): 101% | residual activity (CSNK1A1 (human)): 125% | residual activity (MAP4K4 (human)): 86.9% | residual activity (RPS6KA5 KD2 (human)): 92.3% | residual activity (PRKCG (human)): 105% | residual activity (MAP3K14 (human)): 126% | residual activity (AKT1 (human)): 98.8% | residual activity (MAPKAPK2 (human)): 99.6% | residual activity (DYRK3 (human)): 84.4% | residual activity (PKN1 (human)): 103% | residual activity (PRKD3 (human)): 78.5% | residual activity (STK11 (human)): 98.3% | residual activity (EPHB2 (human)): 91.2% | residual activity (IKBKB (human)): 98.2% | residual activity (TSSK2 (human)): 87.2% | residual activity (IKBKE (human)): 87.1% | residual activity (CDK4 CCND1 (human)): 104% | residual activity (MUSK (human)): 81.3% | residual activity (CSNK1E (human)): 84.8% | residual activity (KDR (human)): 77.6% | residual activity (RAF1 (human)): 87.8% | residual activity (PLK2 (human)): 97.5% | residual activity (NEK11 (human)): 106% | residual activity (EPHA5 (human)): 106% | residual activity (MAP4K5 (human)): 77.1% | residual activity (MAP3K7 TAB1 (human)): 94.9% | residual activity (PAK3 (human)): 98.8% | residual activity (MYLK2 (human)): 97.3% | residual activity (MLTK (human)): 82.3% | residual activity (PRKACA (human)): 104% | residual activity (CLK3 (human)): 87.6% | residual activity (ERBB4 (human)): 58.6% | residual activity (INSR (human)): 100% | residual activity (EPHA8 (human)): 87.9% | residual activity (GRK4 (human)): 98.2% | residual activity (FLT1 (human)): 83.5% | residual activity (PRKCA (human)): 101% | residual activity (PASK (human)): 86.9% | residual activity (CAMKK2 (human)): 80% | residual activity (RET (human)): 78.5%
